{"source": "patent US6433221B1", "about": "(RPC Inc., priority 1998, dated 2002)", "origin": "cited, not measured here", "key": {"[1]": {"conditions": "cyclohexanone in water; for mol % H2O: balance"}, "[2]": {"conditions": "water in cyclohexanone; for mol % CHxO: balance"}}, "note": "Like-named read-outs stand apart in the source and are kept apart here.", "data": [{"compound": "O=C1CCCCC1", "note": "[Cyclohexanone]", "values": [{"measurement": "mol % CHxO", "setting": "[1]; 20 °C", "value": 1.98, "unit": "% mol %"}, {"measurement": "wt % CHxO", "setting": "[1]; 20 °C", "value": 10.00, "unit": "% wt %"}, {"measurement": "mol % H2O", "setting": "[1]; 20 °C", "value": 98.02, "unit": "% mol %"}, {"measurement": "mol % CHxO", "setting": "[1]; 25 °C", "value": 1.85, "unit": "% mol %"}, {"measurement": "wt % CHxO", "setting": "[1]; 25 °C", "value": 9.39, "unit": "% wt %"}, {"measurement": "mol % H2O", "setting": "[1]; 25 °C", "value": 98.15, "unit": "% mol %"}, {"measurement": "mol % CHxO", "setting": "[1]; 30 °C", "value": 1.73, "unit": "% mol %"}, {"measurement": "wt % CHxO", "setting": "[1]; 30 °C", "value": 8.83, "unit": "% wt %"}, {"measurement": "mol % H2O", "setting": "[1]; 30 °C", "value": 98.27, "unit": "% mol %"}, {"measurement": "mol % CHxO", "setting": "[1]; 50 °C", "value": 1.43, "unit": "% mol %"}, {"measurement": "wt % CHxO", "setting": "[1]; 50 °C", "value": 7.39, "unit": "% wt %"}, {"measurement": "mol % H2O", "setting": "[1]; 50 °C", "value": 98.57, "unit": "% mol %"}, {"measurement": "mol % CHxO", "setting": "[1]; 70 °C", "value": 1.34, "unit": "% mol %"}, {"measurement": "wt % CHxO", "setting": "[1]; 70 °C", "value": 6.95, "unit": "% wt %"}, {"measurement": "mol % H2O", "setting": "[1]; 70 °C", "value": 98.66, "unit": "% mol %"}, {"measurement": "mol % CHxO", "setting": "[1]; 90 °C", "value": 1.44, "unit": "% mol %"}, {"measurement": "wt % CHxO", "setting": "[1]; 90 °C", "value": 7.44, "unit": "% wt %"}, {"measurement": "mol % H2O", "setting": "[1]; 90 °C", "value": 98.56, "unit": "% mol %"}]}, {"compound": "O", "note": "[Water]", "values": [{"measurement": "mol % H2O", "setting": "[2]; 20 °C", "value": 25.1, "unit": "% mol %"}, {"measurement": "wt % H2O", "setting": "[2]; 20 °C", "value": 5.7, "unit": "% wt %"}, {"measurement": "mol % CHxO", "setting": "[2]; 20 °C", "value": 74.9, "unit": "% mol %"}, {"measurement": "wt % H2O", "setting": "[2]; 20 °C, listed as water", "value": 5.7, "unit": "wt %"}, {"measurement": "mol % H2O", "setting": "[2]; 25 °C", "value": 25.6, "unit": "% mol %"}, {"measurement": "wt % H2O", "setting": "[2]; 25 °C", "value": 5.9, "unit": "% wt %"}, {"measurement": "mol % CHxO", "setting": "[2]; 25 °C", "value": 74.4, "unit": "% mol %"}, {"measurement": "mol % H2O", "setting": "[2]; 30 °C", "value": 26.1, "unit": "% mol %"}, {"measurement": "wt % H2O", "setting": "[2]; 30 °C", "value": 6.0, "unit": "% wt %"}, {"measurement": "mol % CHxO", "setting": "[2]; 30 °C", "value": 73.9, "unit": "% mol %"}, {"measurement": "mol % H2O", "setting": "[2]; 50 °C", "value": 28.7, "unit": "% mol %"}, {"measurement": "wt % H2O", "setting": "[2]; 50 °C", "value": 6.8, "unit": "% wt %"}, {"measurement": "mol % CHxO", "setting": "[2]; 50 °C", "value": 71.3, "unit": "% mol %"}, {"measurement": "mol % H2O", "setting": "[2]; 70 °C", "value": 32.6, "unit": "% mol %"}, {"measurement": "wt % H2O", "setting": "[2]; 70 °C", "value": 8.1, "unit": "% wt %"}, {"measurement": "mol % CHxO", "setting": "[2]; 70 °C", "value": 67.4, "unit": "% mol %"}, {"measurement": "mol % H2O", "setting": "[2]; 90 °C", "value": 38.5, "unit": "% mol %"}, {"measurement": "wt % H2O", "setting": "[2]; 90 °C", "value": 10.2, "unit": "% wt %"}, {"measurement": "mol % CHxO", "setting": "[2]; 90 °C", "value": 61.5, "unit": "% mol %"}]}]}
